Experiments:
[1] = tested on: pain induced by hot plate; test: Analgesic test with hot plate; assay type: in vivo, mice; details: 25 mg/kg intraperitoneal
Description: This experiment included 4 groups of female mice, totaling 64 and each weighed 18-22 g, selected for normal pain reaction with 55° C. hot plate: high concentration group, low concentration group, dolantin group and control group. The route of administration and dosage are the same as described in the test with formalin. Dolantin was intraperitoneal injected and other groups received test medication on left and right hind feet and abdomen. 30, 60 and 90 minutes after the administration, the mice were put on a 55° C. hot plate and the latent time of each mouse for pain reaction was determined.

pain induced by formalin = test: Analgesic test with formalin; assay type: in vivo, mice; details: 25 mg/kg intraperitoneal
Description: Dolantin was intraperitoneal injected and other groups received test medication on left and right hind feet. 15 minutes after administration, 0.03 ml of 2.5% formalin was given to each mouse by subcutaneous injection on right hind foot and then the test medication was applied again. Then, the number of times of each mouse's licking its right hind foot in 15 minutes was counted.

[2] = tested on: swelling of rat's hind foot; test: Anti-swelling test on rat's hind foot (carrageenan); assay type: in vivo, rats; details: 0.025% ointment
Description: This experiment included 4 groups of rats totaling 40 and each weighed 200-250 g: high concentration group, low concentration group (12.5 mg/25 ml, 6.25 mg/25 ml respectively), fluocinolone acetonide group, control group (the same volume of 25% ethanol). Fluocinolone acetonide was given using a 0.025% ointment, and other groups received corresponding medicament on the left and right hind feet prior to subcutaneous injection of 0.1 ml of 1% carrageenan on the metatarsus of each rat's right hind foot. Immediately after the administration of carrageenan, corresponding medicament was applied on the right hind foot. The metatarsal perimeters of right and left hind foot of each rat were measured 2, 3, 4, and 5 hours after the final administration. The difference between the metatarsal perimeters of the two feet of each rat is taken as a measure of swelling. Corresponding medicament was applied again on rat's right hind foot after each measurement.

[3] = tested on: dimethylbenene-induced ear swelling; test: Acute ear edema of mice induced by dimethylbenene; assay type: in vivo; details: positive control applied on ear; two hours after dimethylbenene
Description: The mice were randomly divided into 5 groups. Thirty minutes and sixty minutes after applying dimethylbenene (50 μl) to the anterior and posterior surfaces of the right ear, 25% ethanol (50 μl), the linimene solutions of anemonin (0.05, 0.5, 5 mg/ml, 50 μl) and FAA (a positive control) were applied on the same ears of mice respectively. The left ear was considered as control. Two hours after dimethylbenene application, mice were killed and both ears were removed. Circular sections were taken, using a 9 mm-diameter borer, and weighed. The increase in weight caused by the irritant was measured by subtracting the weight of the untreated left ear section from that of the treated right ear section.

[4] = tested on: carrageenan-induced paw edema; test: Acute hind paw edema of rats induced by carrageenan; assay type: in vivo; details: for Paw edema: FAA group
Description: The animals were injected subcutaneously with carrageenan (10 μl of 1% solution in saline) into the right paw. Anti-inflammatory properties of external anemonin were studied by applying with various liniment solution of anemonin (0.125, 0.5, 2 mg/ml, 0.5 ml) for 2 h immediately after administration of carrageenan. The rats of control group were treated with the same volume of solvent (25% ethanol). The paw volumes of rats were measured at 0, 2 h, 3 h, 4 h, 5 h, 6 h after injection of carrageenan. The paw edema was represented by subtracting the volume of the untreated same paw from that of the treated paw.

skin = test: Skin allergic test; details: guinea pigs

For CCOC(=O)C1(c2ccccc2)CCN(C)CC1 [Dolantin], the “Increase of pain threshold (%)” value ([1]; 30 min after administration) was 66%, the “Latent time for pain reaction” value ([1]; 30 min after administration) was 49.86 ± 5.23 s and the “Increase of pain threshold (%)” value ([1]; 60 min after administration) was 80%. For the same compound, the “Latent time for pain reaction” value ([1]; 60 min after administration) was 54.29 ± 9.27 s, the “Increase of pain threshold (%)” value ([1]; 90 min after administration) was 94% and the “Latent time for pain reaction” value ([1]; 90 min after administration) was 58.31 ± 11.23 s. For the same compound, the “Rate of inhibition(%)” value (pain induced by formalin) was 100% and the “Times of licking hind feet” value (pain induced by formalin; 15 minutes) was 0.00 ± 0.00.

In the case of CC1(C)O[C@@H]2C[C@H]3[C@@H]4C[C@H](F)C5=CC(=O)C=C[C@]5(C)[C@@]4(F)[C@@H](O)C[C@]3(C)[C@]2(C(=O)CO)O1 [Fluocinolone acetonide], the “Degree of tumefaction (cm)” value ([2]; 2 hours) is reported as 0.91 ± 0.20 cm, the “Degree of tumefaction (cm)” value ([2]; 3 hours) is reported as 0.92 ± 0.13 cm and the “Degree of tumefaction (cm)” value ([2]; 4 hours) is reported as 0.90 ± 0.18 cm. For the same compound, the “Degree of tumefaction (cm)” value ([2]; 5 hours) was 0.92 cm.

For CC(=O)OCC(=O)[C@@]12OC(C)(C)O[C@@H]1C[C@H]1[C@@H]3C[C@H](F)C4=CC(=O)C=C[C@]4(C)[C@@]3(F)[C@@H](O)C[C@@]12C [FAA, Fluocinoloni Acetonidi Acetas, reference compound], the “Ear swellin” value [3] was 10 ± 1.8 mg, the “Paw edema” value ([4]; 2 h) was 0.13 ± 0.05 mL and the “Paw edema” value ([4]; 3 h) was 0.09 ± 0.07 mL. For the same compound, the “Paw edema” value ([4]; 4 h) was 0.11 ± 0.08 mL, the “Paw edema” value ([4]; 5 h) was 0.09 ± 0.07 mL and the “Paw edema” value ([4]; 6 h) was 0.09 ± 0.11 mL. The edema formation ([4]; steroidal anti-inflammatory drug, positive control) was “significantly inhibited”.

O=[N+]([O-])c1ccc(Cl)c([N+](=O)[O-])c1 [positive control, 2,4-dinitrochlorobenzene] was tested, and the allergenic intensity (skin) was “extreme” and the allergenic rate (skin) was 100%.
